Reference: patent US20140186329A1, “POLYPHENOL ANALOGS TO TREAT ISCHEMIA” (priority 2011, published 2014)
Read-outs that look alike come from different tables or passages of the source.

Assays:
HT22 cells [1] = experiment: In vitro ischemia assay (HT22 cell IAA assay, MTT); assay type: cell-based, mouse; settings: for EC50 / Emax: Mus musculus; for EC50: HT-22, HT22 cells; for Emax: HT-22, HT22 Cell IAA assay, read-out: Max Protection
Description: Cell viability was determined by a modified version of 3-(4,5-dimethylthiazol-2-yl)-2,5-diphenyl tetrazolium bromide (MTT) assay based on the standard procedure (Maher, et al., Brain Research. (2007), supra). Cells were seeded onto 96-well microtiter plates at a density of 5×10^3 cells per well. For the in vitro ischemia assay, the next day, the medium was replaced with DMEM supplemented with 7.5% DFCS and the cells were treated with 20 μM iodoacetic acid (IAA) alone or in the presence of the different derivatives. After 2 hr the medium in each well was aspirated and replaced with fresh medium without IAA but containing the derivatives. 20 hr later, the medium in each well was aspirated and replaced with fresh medium containing 2.5 μg/ml MTT. After 4 hr of incubation at 37° C., the cells were solubilized with 100 μl of a solution containing 50% dimethylformamide and 20% SDS (pH 4.7). The absorbance at 570 nm was measured on the following day with a microplate reader (Molecular Devices). Results were confirmed by visual inspection of the wells. Controls included compound alone to test for toxicity and compound with no cells to test for interference with the assay chemistry.
For a primary screen, an in vitro ischemia model in combination with the HT22 nerve cell line (Maher, et al., Brain Research. (2007) 1173, 117-125) was chosen. […] To induce ischemia in the HT22 cells we used iodoacetic acid (IAA), a well-known, irreversible inhibitor of the glycolytic enzyme glyceraldehyde 3-phosphate dehydrogenase (G3PDH) (Winkler, et al., Exp. Eye Res. (2003) 76, 715-723). IAA has been used in a number of other studies to induce ischemia in nerve cells (Reshef, et al., Neurosci. Lett. (1997) 238, 37-40; Sperling, et al., Neursci. Lett. (2003) 351, 137-140; Rego, et al., Neurochem. Res. (1999) 24, 351-358; Sigalov, et al., J. Mol. Neurosci. (2000) 15, 147-154; and Reiner, et al., Neurosci. Lett. (1990) 119, 175-178), including several recent screens for neuroprotective molecules (Biraboneye, et al., J. Med. Chem. (2009) 52 (14), 4358-4369; Biraboneye, et al., Chem. Med. Chem. (2010) 5 (1), 79-85). The changes following IAA treatment of neural cells are very similar to those seen in animal models of ischemic stroke (Lipton, et al., Physiol. Rev. (1999) 79, 1431-1568) and include alterations in membrane potential (Reiner, et al., Neurosci. Lett. (1990) 119, 175-178), breakdown of phospholipids (Taylor, et al., J. Pharmacol. Exp. Ther. (1996) 276, 1224-1231), loss of ATP (Winkler, et al., Exp. Eye Res. (2003) 76, 715-723; Sperling, et al., Neursci. Lett. (2003) 351, 137-140) and an increase in reactive oxygen species (ROS) (Taylor, et al., J. Pharmacol. Exp. Ther. (1996), supra; and Sperling, et al., Neursci. Lett. (2003) 351, 137-140).
(§1) Cell viability was determined after 24 hr by the MTT assay. The ability to maintain GSH (GSH) was determined by treating HT22 cells with different doses of each derivative (1-10 μM) in the presence of 5 mM glutamate. After 24 hr cell extracts were prepared and analyzed for total GSH. Fisetin (10 μM) was used as a positive control. The ability to induce PC12 cell differentiation (PC 12 diff' n) was determined by treating PC12 cells in N2 medium with different doses of each derivative (1-10 μM) for 24 hr. Differentiation was assessed by visual inspection with Fisetin (10 μM) as a positive control. Anti-inflammatory activity (microglia) was assessed in N9 microglial cells treated with bacterial lipopolysaccharide alone or in the presence different doses of each derivative (1-10 μM) for 24 hr. Fisetin was used as a positive control. TEAC values, a measure of direct antioxidant activity, were determined using the ABTS decolorization assay.
For rapid screening of chemical libraries, a mouse HT22 hippocampal cell death assay induced by addition of the compound iodoacetic acid (IAA) was used. IAA is a well-known, irreversible inhibitor of the glycolytic enzyme glyceraldehyde 3-phosphate dehydrogenase (G3PDH). […]

HT22 cells [2] = experiment: Maintenance of total GSH in the presence of glutamate; assay type: cell-based, mouse; settings: derivative 1-10 μM, 5 mM glutamate, 24 hr
Description: Total intracellular glutathione was determined by a chemical assay as described (Maher, P. et al., Free Radical Research. (2006) 40 (10), 1105-1111).
(§2) Three secondary screens allowed assessment of three key activities of Fisetin that are highly relevant to stroke, as well as other neurological disorders: maintenance of glutathione (GSH), the major endogenous cellular antioxidant, inhibition of LPS-induced microglial activation, an indicator of anti-inflammatory activity and PC 12 cell differentiation, a measure of neurotrophic activity. All of these activities are relevant to the nerve cell loss seen in stroke (Gelderblom, et al., Stroke. 2009, 40 (5), 1849-1857; Pandya, et al., Cent. Nerv. Syst. Agents. Med. Chem. (2011) April 27; Lewerenz, et al., J. Neurochem. (2010) 113 (2), 502-504). […] To assess GSH maintenance, total intracellular GSH levels after a 24 hr treatment with the compound both in the absence and presence of glutamate, an inducer of GSH loss and oxidative stress (Tan, et al., Curr. Top. Med. Chem. (2001) 1, 497-506; Maher, et al., Free Radical Research. (2006) 40 (10), 1105-1111) was measured. Inhibition of LPS-induced microglial activation was determined by treating N9 mouse microglial cells with LPS alone and in the presence of the compounds and assaying NO release into the medium 24 hr later (Zheng, et al., Int. Immunopharmacol. (2008) 8, (3), 484-494). PC12 cell differentiation was determined by treating PC12 cells with the compounds and looking at neurite outgrowth after 24 hr. In all cases, Fisetin was used as a positive control (Sagara, et al., J. Neurochem. (2004) 90, 1144-1155).
as §1

PC12 cells = experiment: PC12 cell differentiation (neurite outgrowth); assay type: cell-based; settings: N2 medium, derivative 1-10 μM, 24 hr, visual inspection
Description: PC 12 cells in N2 medium were treated with the derivatives (1-10 μM) or Fisetin (10 μM) as a positive control for 24 hr at which time the cells were scored for the presence of neurites. PC12 cells produce neurites much more rapidly when treated in N2 medium than when treated in regular growth medium. For each treatment, 100 cells in each of three separate fields were counted. Cells were scored positive if one or more neurites>1 cell body diameter in length were observed.
as §2, §1

[3] = TEAC, ABTS decolorization assay; settings: relative to Trolox
Description: TEAC values for the flavonoids were determined as described (Maher, P. et al., Free Radical Research. (2006), supra). Briefly, 250 μl of 2,2′-azinobis(3-ethylbenzothiazoline 6-sulfonate) (ABTS) treated overnight with potassium persulfate and diluted to an OD of ˜0.7 at 734 nm was added to 2.5 μl of a derivative solution in ethanol. The change in absorbance due to the reduction of the ABTS radical cation was measured at 734 nm for 4 min. To calculate the TEAC, the gradient of the plot of the percentage inhibition of absorbance vs. concentration for the derivative in question was divided by the gradient of the plot for Trolox.
as §1

[4] = 20 μM IAA for 2 hr, viability after 24 hr by MTT, read-out: EC50 in vitro ischemia
[5] = 20 μM IAA, read-out: HT22 Cell IAA assay EC50

| Structure (SMILES) | EC50 in vitro ischemia (μM) (HT22 cells [1]; HT22 cells, 20 μM IAA for 2 hr, viability after 24 hr by MTT) | GSH (ability to maintain GSH) (HT22 cells [2]) | PC12 diff'n (ability to induce PC12 cell differentiation) (PC12 cells) | TEAC [3] | EC50 (HT22 cells [1]; [4]) [nM] | Emax (HT22 cells [1]) [%] | EC50 (HT22 cells [1]; [5]) [nM] |
| --- | --- | --- | --- | --- | --- | --- | --- |
| CCOc1ccc(/C=C/C(=O)c2ccc3ccccc3c2O)cc1OCC [CMS-032, (E)-3-(3,4-diethoxyphenyl)-1-(1-hydroxynaphthalen-2-yl)prop-2-en-1-one] | no | no | no | 0.12 |  |  |  |
| CCOc1ccc(-c2oc3cc(C)c(C)cc3c(=O)c2O)cc1OCC [CMS-025, 2-(3,4-diethoxyphenyl)-3-hydroxy-6,7-dimethyl-4H-chromen-4-one] |  | no | no | 0.84 | 500 |  |  |
| COc1cc(-c2oc3c(ccc4ccccc43)c(=O)c2O)ccc1O [CMS-070, 3-hydroxy-2-(4-hydroxy-3-methoxyphenyl)-4H-benzo[h]chromen-4-one] |  | no | yes | 0.63 | > 500 |  |  |
| COc1ccc(-c2oc3cc(C)c(C)cc3c(=O)c2O)cc1O [CMS-092, 3-hydroxy-2-(3-hydroxy-4-methoxyphenyl)-6,7-dimethyl-4H-chromen-4-one] |  | no | no | 1.74 | 20 | 90 |  |
| COc1cc(-c2cc(OC)c3ccccc3n2)ccc1O [CMS-017, 4-methoxy-2-(4-hydroxy, 3-methoxyphenyl) quinoline] |  | no | no | 0.15 | 500 |  |  |
| Cc1cc2oc(-c3ccc(N(C)C)cc3)cc(=O)c2cc1C [CMS-119, 2-(4-(dimethylamino)phenyl)-6,7-dimethyl-4H-chromen-4-one] |  | no | no | 0 | > 500 |  |  |
| O=c1c(O)c(-c2ccc(N3CCCC3)cc2)oc2c1ccc1ccccc12 [CMS-114, 3-hydroxy-2-(4-(pyrrolidin-1-yl)phenyl)-4H-benzo[h]chromen-4-one] |  | no | yes | 1.44 | 70 | 74 | 71 |
| Cc1cc(O)c(C(=O)/C=C/c2ccc(O)cc2O)cc1C [CMS-087, (E)-3-(2,4-dihydroxyphenyl)-1-(2-hydroxy-4,5-dimethylphenyl)prop-2-en-1-one] |  | no | yes | 0.93 | 50 |  |  |
| CC(C)Oc1cc(-c2ccc(O)cc2O)nc2ccccc12 [CMS-084, 4-isopropoxy-2-(2,4-dihydroxyphenyl) quinoline] |  | no | no | 0.27 | 210 |  | 210 |
| Cc1cc2oc(-c3ccc(O)c(O)c3)c(O)c(=O)c2cc1C [CMS-027, 2-(3,4-dihydroxyphenyl)-3-hydroxy-6,7-dimethyl-4H-chromen-4-one] |  | no | no | 1.89 | 500 |  |  |
| O=c1c(O)c(-c2ccc(O)c(O)c2)oc2ccc3ccccc3c12 [CMS-041, 3-(3,4-dihydroxyphenyl)-2-hydroxy-1H-benzo[h]chromen-1-one] |  | no | yes | 1.26 | 250 |  |  |
| COc1cc(-c2ccc(N(C)C)cc2)nc2ccccc12 [CMS-109, 4-methoxy-2-(4-dimethylaminophenyl)quinoline] |  | no | no | 0.06 | 60 |  |  |
| CN(C)c1ccc(-c2cc(=O)c3ccc4ccccc4c3o2)cc1 [CMS-120, 2-(4-(dimethylamino)phenyl)-4H-benzo[h]chromen-4-one] |  | no | no | 0.24 | 250 |  |  |
| Cc1cc2oc(-c3ccc(N4CCCC4)cc3)cc(=O)c2cc1C [CMS-116, 6,7-dimethyl-2-(4-(pyrrolidin-1-yl)phenyl)-4H-chromen-4-one] |  | no | no | 0.12 | > 500 |  |  |
| Cc1cc2oc(-c3ccc(O)cc3O)c(O)c(=O)c2cc1C [CMS-093, 2-(2,4-dihydroxyphenyl)-3-hydroxy-6,7-dimethyl-4H-chromen-4-one] |  | no | no | 1.56 | > 500 |  |  |
